Read-outs that look alike come from different tables or passages of the source.
Experiments:
[1] = Plasma concentrations of estradiol and unconjugated estrone (HPLC with MS/MS); format: in vivo, human (women); details: for Geometric Mean Concentration of E2 (plasma): Baseline; for concentration at 4 weeks / concentration at 8 weeks / concentration at 12 weeks: female, human, plasma, topical, read-out: Geometric Mean Concentration of E2 (plasma)
Procedure: A single 10 mL sample of whole blood was collected at baseline, Weeks 4, 8, and 12. To eliminate the possibility of sample contamination, only the specimens obtained from the arm not used for estradiol application were reported.

[2] = cited from earlier work
[3] = system: menopausal women; assay: Placebo-controlled study: frequency of moderate to severe hot flushes; format: in vivo, human (women); set-up: key to Frequency of Moderate to Severe Hot Flushes, Mean Change from Baseline / Frequency of Moderate to Severe Hot Flushes, Mean: number of moderate-to-severe hot flushes per day; details: for Frequency of Moderate to Severe Hot Flushes, Mean: Baseline, daily average
Procedure: (§1) This study was a multi-centred, double-blind, placebo-controlled, parallel group comparison. A total of 351 subjects were enrolled at 78 sites in the United States.
(§2) A two-week, medication free, Pre-Treatment Phase was used to determine subject vasomotor symptoms. Efficacy assessments included the number and intensity of hot flushes per day, and severity of vulvar and vaginal atrophy symptoms.
(§3) The three treatment groups comprised the following dosages: • A 0.375 mg dose (1.25 g of gel @ 0.03%) applied to one arm and 0.9 g of placebo gel applied on the other arm once daily for 12 weeks; • A 0.27 mg dose (0.9 g of gel @ 0.03%) applied to one arm and 1.25 g of placebo gel applied on the other arm once daily for 12 weeks; and • 0.9 g of placebo gel applied to one arm and 1.25 g of placebo gel applied on the other arm once daily for 12 weeks.
(§4) The Treatment Phase was 12 weeks. A pre-treatment period of 2 weeks was used to initially evaluate each subject's vasomotor symptoms.
(§5) All data were analyzed using the approach of Observed Cases (OC).
(§6) For all continuous primary and secondary efficacy parameters, descriptive statistics tables and 2-way ANCOVA with fixed factors treatment and centre, and baseline value as covariate were provided. The interaction of treatment and centre was investigated using 2-way ANCOVA with fixed factors treatment, centre, and treatment-by-centre interaction with baseline value as covariate. To control the Type-I error rate, a step-down procedure using contrasts was performed to compare each treatment group to the placebo group. First, the group with the 0.375 mg dose was compared against placebo at the α=0.05 level (2-sided). If the null hypothesis was rejected, the group with the 0.27 mg dose was compared to placebo at the α=0.05 level (2-sided). Graphs were used to characterize the dose response. If the assumptions of the model were not met, then van Elteren's test with centre as the stratification variable was used in the step-down procedure. For categorical data, Fisher's exact test was used to compare treatment groups.
(§7) The study assessed the following variables: • Mean change in frequency of moderate to severe vasomotor symptoms from baseline to Week 4; • Mean change in frequency of moderate to severe vasomotor symptoms from baseline to Week 12; • Mean change in severity of moderate to severe vasomotor symptoms from baseline to Week 4; • Mean change in severity of moderate to severe vasomotor symptoms from baseline to Week 12; • Mean change in frequency of moderate-to-severe hot flushes at each week; • Mean change in severity of moderate-to-severe hot flushes at each week; • Mean change from baseline to Week 12 in the moderate to severe symptom of vulvar and vaginal atrophy that has been identified by the subject as being the most bothersome to her (vaginal pain, dryness, irritation/itching, bleeding, dysuria);
The baseline value was defined as the daily average of moderate to severe hot flushes during the 2 Pre-Treatment Phase weeks. The “daily average” was calculated from “the mean across the reported days at each week or at Pre-Treatment Phase weeks. If only mild hot flushes were reported on any day, the moderate to severe hot flush value for the subject on that day was zero. If less than 10 days of data were available for the baseline period, the baseline daily average was considered missing.
On a daily basis, the subject recorded the number of hot flushes and rated the intensity of each based on a four-point scale as follows: • 0 (none) • 1 (mild) Sensation of heat without perspiration • 2 (moderate) Sensation of heat with perspiration, but the subject was able to continue with their activity • 3 (severe) Sensation of heat with sweating, sufficiently severe to result in discontinuation of activity Assessment of Vulvar and Vaginal Atrophy Symptom Severity

[4] = system: menopausal women; assay: Placebo-controlled study: moderate to severe symptom of vulvar and vaginal atrophy; format: in vivo, human (women)
Procedure: as §1, §2, §3, §4, §5, §6, §7
The severity of symptoms of vulvar and vaginal atrophy (vaginal pain associated with sexual activity, dryness, irritation/itching, bleeding associated with sexual activity, or dysuria) that was identified by the subject as moderate to severe and most bothersome was assessed at Week 1, Week 12, or Early Termination using the following rating scale: […]

[5] = 0.27 mg dose (N = 115), Baseline
[6] = 0.27 mg dose (N = 115), Endpoint
[7] = 0.375 mg dose (N = 114), Baseline
[8] = 0.375 mg dose (N = 114), Endpoint

C[C@]12CC[C@@H]3c4ccc(O)cc4CC[C@H]3[C@@H]1CC[C@@H]2O [estradiol, 17-beta estradiol]
Geometric Mean Concentration of E2 (plasma) ([1]; 0.270 mg estradiol dose): 4.2 pg/mL | Geometric Mean Concentration of E2 (plasma) ([1]; 0.375 mg estradiol dose): 3.7 pg/mL | concentration at 4 weeks ([1]; 0.27 mg): 0.0142 ng/mL | concentration at 8 weeks ([1]; 0.27 mg): 0.0156 ng/mL | concentration at 12 weeks ([1]; 0.27 mg): 0.014 ng/mL | concentration at 4 weeks ([1]; 0.375 mg): 0.0183 ng/mL | concentration at 8 weeks ([1]; 0.375 mg): 0.0158 ng/mL | concentration at 12 weeks ([1]; 0.375 mg): 0.0214 ng/mL | serum estradiol level ([2]; daily topical 0.75 mg dose of estradiol (1.25 g of hydro-alcoholic gel per day)): elevation in the serum estradiol level | serum estradiol level ([2]; lower estradiol dose than 0.75 mg): did not achieve similar serum levels | Week at which statistical significance vs placebo was achieved, frequency of moderate to severe hot flushes ([3]; 0.27 mg dose): 4 Week | Frequency of Moderate to Severe Hot Flushes, Mean ([3]; 0.27 mg dose): 11.73 | Frequency of Moderate to Severe Hot Flushes, Mean Change from Baseline ([3]; 0.27 mg dose, Week 1): −1.05 | Frequency of Moderate to Severe Hot Flushes, Mean Change from Baseline ([3]; 0.27 mg dose, Week 2): −2.97 | Frequency of Moderate to Severe Hot Flushes, Mean Change from Baseline ([3]; 0.27 mg dose, Week 3): −4.08 | Frequency of Moderate to Severe Hot Flushes, Mean Change from Baseline ([3]; 0.27 mg dose, Week 4): −4.63 | Frequency of Moderate to Severe Hot Flushes, Mean Change from Baseline ([3]; 0.27 mg dose, Week 5): −5.20 | Frequency of Moderate to Severe Hot Flushes, Mean Change from Baseline ([3]; 0.27 mg dose, Week 6): −5.62 | Frequency of Moderate to Severe Hot Flushes, Mean Change from Baseline ([3]; 0.27 mg dose, Week 7): −6.02 | Frequency of Moderate to Severe Hot Flushes, Mean Change from Baseline ([3]; 0.27 mg dose, Week 8): −6.02 | Frequency of Moderate to Severe Hot Flushes, Mean Change from Baseline ([3]; 0.27 mg dose, Week 9): −6.24 | Frequency of Moderate to Severe Hot Flushes, Mean Change from Baseline ([3]; 0.27 mg dose, Week 10): −6.29 | Frequency of Moderate to Severe Hot Flushes, Mean Change from Baseline ([3]; 0.27 mg dose, Week 11): −6.29 | Frequency of Moderate to Severe Hot Flushes, Mean Change from Baseline ([3]; 0.27 mg dose, Week 12): −6.19 | Week at which statistical significance vs placebo was achieved, frequency of moderate to severe hot flushes ([3]; 0.375 mg dose): 2 Week | Frequency of Moderate to Severe Hot Flushes, Mean ([3]; 0.375 mg dose): 12.50 | Frequency of Moderate to Severe Hot Flushes, Mean Change from Baseline ([3]; 0.375 mg dose, Week 1): −1.93 | Frequency of Moderate to Severe Hot Flushes, Mean Change from Baseline ([3]; 0.375 mg dose, Week 2): −4.36 | Frequency of Moderate to Severe Hot Flushes, Mean Change from Baseline ([3]; 0.375 mg dose, Week 3): −5.73 | Frequency of Moderate to Severe Hot Flushes, Mean Change from Baseline ([3]; 0.375 mg dose, Week 4): −6.91 | Frequency of Moderate to Severe Hot Flushes, Mean Change from Baseline ([3]; 0.375 mg dose, Week 5): −7.56 | Frequency of Moderate to Severe Hot Flushes, Mean Change from Baseline ([3]; 0.375 mg dose, Week 6): −7.83 | Frequency of Moderate to Severe Hot Flushes, Mean Change from Baseline ([3]; 0.375 mg dose, Week 7): −8.05 | Frequency of Moderate to Severe Hot Flushes, Mean Change from Baseline ([3]; 0.375 mg dose, Week 8): −8.49 | Frequency of Moderate to Severe Hot Flushes, Mean Change from Baseline ([3]; 0.375 mg dose, Week 9): −8.69 | Frequency of Moderate to Severe Hot Flushes, Mean Change from Baseline ([3]; 0.375 mg dose, Week 10): −8.47 | Frequency of Moderate to Severe Hot Flushes, Mean Change from Baseline ([3]; 0.375 mg dose, Week 11): −8.81 | Frequency of Moderate to Severe Hot Flushes, Mean Change from Baseline ([3]; 0.375 mg dose, Week 12): −8.76 | Efficacy vs. placebo, frequency and severity of moderate to severe hot flushes ([3]; 0.375 mg dose, Weeks 4 and 12, all 4 criteria): efficacious vs. placebo | Improvement in moderate to severe symptoms of vulvar and vaginal atrophy ([4]; 0.27 mg dose): statistically significant improvement | Symptom of Vulvar and Vaginal Atrophy, number of subjects rated Moderate [4, 5]: 21 | Symptom of Vulvar and Vaginal Atrophy, number of subjects rated Severe [4, 5]: 16 | Symptom of Vulvar and Vaginal Atrophy, percent of subjects rated Severe [4, 5]: (13.9%) | Symptom of Vulvar and Vaginal Atrophy, number of subjects rated Mild [4, 6]: 15 | Symptom of Vulvar and Vaginal Atrophy, number of subjects rated Moderate [4, 6]: 10 | Symptom of Vulvar and Vaginal Atrophy, number of subjects rated None [4, 6]: 6 | Symptom of Vulvar and Vaginal Atrophy, number of subjects rated Severe [4, 6]: 5 | Symptom of Vulvar and Vaginal Atrophy, percent of subjects rated Mild [4, 6]: (13.0%) | Symptom of Vulvar and Vaginal Atrophy, percent of subjects rated Moderate [4, 6]: (8.7%) | Symptom of Vulvar and Vaginal Atrophy, percent of subjects rated None [4, 6]: (5.2%) | Symptom of Vulvar and Vaginal Atrophy, percent of subjects rated Severe [4, 6]: (4.3%) | Improvement in moderate to severe symptoms of vulvar and vaginal atrophy ([4]; 0.375 mg dose): statistically significant improvement | Symptom of Vulvar and Vaginal Atrophy, number of subjects rated Moderate [4, 7]: 26 | Symptom of Vulvar and Vaginal Atrophy, number of subjects rated Severe [4, 7]: 18 | Symptom of Vulvar and Vaginal Atrophy, percent of subjects rated Moderate [4, 7]: (22.8%) | Symptom of Vulvar and Vaginal Atrophy, percent of subjects rated Severe [4, 7]: (15.8%) | Symptom of Vulvar and Vaginal Atrophy, number of subjects rated Mild [4, 8]: 17 | Symptom of Vulvar and Vaginal Atrophy, number of subjects rated Moderate [4, 8]: 9 | Symptom of Vulvar and Vaginal Atrophy, number of subjects rated None [4, 8]: 10 | Symptom of Vulvar and Vaginal Atrophy, number of subjects rated Severe [4, 8]: 6 | Symptom of Vulvar and Vaginal Atrophy, percent of subjects rated Mild [4, 8]: (14.9%) | Symptom of Vulvar and Vaginal Atrophy, percent of subjects rated Moderate [4, 8]: (7.9%) | Symptom of Vulvar and Vaginal Atrophy, percent of subjects rated None [4, 8]: (8.8%) | Symptom of Vulvar and Vaginal Atrophy, percent of subjects rated Severe [4, 8]: (5.3%)

From patent US8431557B2, “Treatment of menopause-associated symptoms” (Besins Healthcare Luxembourg SARL, priority 2006, dated 2013)
